For experiment [1], the system named is A549. In words: Cytotoxicity against human A549 cells at < […] after 48 hrs by SRB assay. Type of experiment: functional, cell-based.
Experiment [2] concerns MDA-MB-231. Nature of the experiment: Cytotoxicity against human MDA-MB-231 cells at < […] after 48 hrs by SRB assay. It is filed as functional, cell-based. In general terms: Sulforhodamine B stains cellular protein and so reports cell mass.
Experiment [3] deals with HT-29. In words: Cytotoxicity against human HT-29 cells at < […] after 48 hrs by SRB assay. Type of experiment: functional, cell-based.
Experiment [4] deals with HT-29. In words: Growth inhibition of human HT-29 cells. It is filed as functional.
For experiment [5], the system named is HT-29. In words: Cytotoxicity against human HT-29 cells assessed as reduction in cell viability at 41 ug/mL after 48 hrs by MTT assay. Type of experiment: functional. To be noted: HT-29, 48 h.
In experiment [6] the test system is HT-29. Nature of the experiment: Cell cycle arrest in human HT-29 cells assessed as accumulation at S phase at 41 ug/mL after 72 hrs using propidium iodide staining by flow cytometry. Type of experiment: functional. Background: Flow cytometry measures light scatter and fluorescence of single cells or particles in a stream.
Experiment [7] relates to HT-29. In words: Induction of apoptosis in human HT-29 cells at 41 ug/mL after 72 hrs using propidium iodide staining by flow cytometry. It is filed as functional.
Experiment [8] concerns HT-29. Nature of the experiment: Cell cycle arrest in human HT-29 cells assessed as accumulation at G1 phase at 41 ug/mL after 72 hrs using propidium iodide staining by flow cytometry. Type of experiment: functional.
Experiment [9] has as its system HT-29. In words: Cell cycle arrest in 0.2 ug/mL nocodazole pretreated human HT-29 cells assessed as accumulation at G1 phase at 41 ug/mL after 72 hrs using propidium iodide staining by flow cytometry. Type of experiment: functional.
In experiment [10] the test system is HT-29. Nature of the experiment: Induction of apoptosis in 0.2 ug/mL nocodazole pretreated human HT-29 cells at 41 ug/mL after 72 hrs using propidium iodide staining by flow cytometry. Type of experiment: functional.
Experiment [11] has as its system HT-29. Nature of the experiment: Cell cycle arrest in 0.2 ug/mL nocodazole pretreated human HT-29 cells assessed as accumulation at S phase at 41 ug/mL after 72 hrs using propidium iodide staining by flow cytometry. It is filed as functional.
Experiment [12] has as its system HT-29. In words: Cell cycle arrest in human HT-29 cells assessed as accumulation at G2/M phase at 41 ug/mL after 72 hrs using propidium iodide staining by flow cytometry. Type of experiment: functional.
Experiment [13] concerns HT-29. In words: Cell cycle arrest in 0.2 ug/mL nocodazole pretreated human HT-29 cells assessed as accumulation at G2/M phase at 41 ug/mL after 72 hrs using propidium iodide staining by flow cytometry. It is filed as functional.
Experiment [14] relates to HT-29. In words: Induction of DNA damage signaling pathways in human HT-29 cells assessed as p53 phosphorylation at 41 ug/mL after 24 hrs by Western blotting. It is filed as functional, cell-based. (Immunoblotting shows a protein as a band on a membrane.)
Experiment [15] concerns HT-29. In words: Induction of DNA damage signaling pathways in human HT-29 cells assessed as Chk1 phosphorylation at 41 ug/mL after 24 hrs by Western blotting. It is filed as functional, cell-based.
The subject of experiment [16] is HT-29. In words: Induction of DNA damage signaling pathways in human HT-29 cells assessed as Chk2 phosphorylation at 41 ug/mL after 24 hrs by Western blotting. Type of experiment: functional, cell-based.
Experiment [17] has as its system HT-29. Nature of the experiment: Induction of increase in histone gamma-H2A.X levels in human HT-29 cells at 41 ug/mL after 24 to 60 hrs by Western blotting. It is filed as functional, cell-based.
Experiment [18] has as its system HT-29. Nature of the experiment: Induction cdc2 protein degradation in human HT-29 cells at 41 ug/mL after 24 to 60 hrs by Western blotting. Type of experiment: functional, cell-based.
The subject of experiment [19] is HT-29. In words: Induction Wee1 protein degradation in human HT-29 cells at 41 ug/mL after 24 to 60 hrs by Western blotting. Type of experiment: functional, cell-based.
For experiment [20], the system named is HT-29. In words: Induction Cyclin B1 protein degradation in human HT-29 cells at 41 ug/mL after 24 to 60 hrs by Western blotting. It is filed as functional, cell-based.
In experiment [21] the test system is HT-29. Nature of the experiment: Induction cdc2 protein degradation in 10 uM proteasome inhibitor MG132 pretreated human HT-29 cells at 41 ug/mL after 6 to 36 hrs by Western blotting. It is filed as functional, cell-based.
The subject of experiment [22] is HT-29. In words: Reduction of phosphorylated cdc2 protein level in 0.2 ug/mL nocodazole pretreated human HT-29 cells at 41 ug/mL after 24 to 72 hrs by Western blotting. Type of experiment: functional, cell-based.
For experiment [23], the system named is HT-29. Nature of the experiment: Induction Wee1 protein degradation in 10 uM proteasome inhibitor MG132 pretreated human HT-29 cells at 41 ug/mL after 6 to 36 hrs by Western blotting. It is filed as functional, cell-based.
In experiment [24] the test system is HT-29. Nature of the experiment: Induction cdc2 protein degradation in 300 uM protein synthesis inhibitor cycloheximide pretreated human HT-29 cells at 41 ug/mL after 6 to 36 hrs by Western blotting. Type of experiment: functional, cell-based.
Experiment [25] concerns HT-29. In words: Induction Wee1 protein degradation in 300 uM protein synthesis inhibitor cycloheximide pretreated human HT-29 cells at 41 ug/mL after 6 to 36 hrs by Western blotting. Type of experiment: functional, cell-based.
Experiment [26] deals with HT-29. In words: Induction of apoptosis in human HT-29 cells at 41 ug/mL after 24 hrs using propidium iodide staining by flow cytometry. Type of experiment: functional.
In experiment [27] the test system is HT-29. Nature of the experiment: Cell cycle arrest in human HT-29 cells assessed as accumulation at G1 phase at 41 ug/mL after 24 hrs using propidium iodide staining by flow cytometry. It is filed as functional.
Experiment [28] concerns HT-29. Nature of the experiment: Cell cycle arrest in human HT-29 cells assessed as accumulation at S phase at 41 ug/mL after 24 hrs using propidium iodide staining by flow cytometry. It is filed as functional.
Experiment [29] concerns HT-29. In words: Cell cycle arrest in human HT-29 cells assessed as accumulation at G2/M phase at 41 ug/mL after 24 hrs using propidium iodide staining by flow cytometry. Type of experiment: functional.
Experiment [30] relates to A549. Nature of the experiment: Growth inhibition of human A549 cells. Type of experiment: functional.

The source made the active and inactive calls. The rule behind the calls is not given here.

Usually inhibition stands for the drop in the measured response relative to a control, in per cent.

In the case of `COc1c(C)c(OC)c(OC)c2c1C[C@H]1CN(C(=O)OC(C)C)C[C@@H](C#N)N1[C@H]2COC(=O)/C=C/c1ccccc1` (relative stereo), the inhibition result in experiment [1], in experiment [2] and in experiment [3] was “inactive” in each case.
As for `COc1c(C)c(OC)c(OC)c2c1C[C@H]1CNCC(=O)N1[C@H]2CO` (relative stereo), the inhibition entry in [1], in experiment [2] and in [3] was “inactive” throughout.
As to `COc1c(C)c(OC)c(OC)c2c1C[C@H]1CN(C)C[C@H]3OC[C@@H]2N13` (relative stereo), the inhibition result in [1], in experiment [2] and in [3] was “inactive” each time.
Take `COc1c(C)c(OC)c(OC)c2c1C[C@H]1CN(C(=O)OC(C)C)CC(=O)N1[C@H]2COCc1ccccc1`: the GI in [4] came out at 1.95 ×10⁻⁷ M. For the same compound, the inhibition result in [1], in experiment [2] and in experiment [3] was “Active” in each case. Also, the inhibition at 41 µg/mL in experiment [5] came out at 80%. The Activity in experiment [6] came out at 12.8%; in [7], 29.9%; in experiment [8], 45.9%; in experiment [9], 31%; in [10] it was 35.6%; in [11], 13.4%. The Activity is recorded as 10.4% in experiment [12]; 18.3% in experiment [13]; 4.3% in experiment [26]; 61.4% in experiment [27]; 15.2% in experiment [28]; 16.4% in [29]. The result in experiment [14], in experiment [15], in [16], in experiment [17], in experiment [18] and in experiment [19] was inactive. Besides, the result in experiment [20] and in [23] was inactive. The result in experiment [21], in [22], in experiment [24] and in experiment [25] was Active.
On to `COc1c(C)c(OC)c(OC)c2c1C[C@H]1[C@@H](O)N(C(=O)OC(C)C)CC(=O)N1[C@H]2COCc1ccccc1`, for which the GI in experiment [30] was 5.68 ×10⁻⁶ M.
As to `COc1c(C)c(OC)c(OC)c2c1C[C@H]1CN(C(=O)OC(C)C)C[C@@H](C#N)N1[C@H]2CO` (relative stereo), the inhibition result in experiment [1], in experiment [2] and in experiment [3] was “inactive” each time.
In the case of `COc1c(C)c(OC)c(OC)c2c1C[C@H]1CN(C(=O)OC(C)C)CC(=O)N1[C@H]2CO[Si](c1ccccc1)(c1ccccc1)C(C)(C)C` (relative stereo), the inhibition result in [1], in experiment [2] and in experiment [3] was “inactive” each time.
Consider `COc1c(C)c(OC)c(OC)c2c1C[C@H]1CN(C(=O)OC(C)C)C[C@@H](C#N)N1[C@H]2COC(=O)c1cccc2ccccc12` (relative stereo), for which the inhibition entry in [1], in experiment [2] and in experiment [3] was “inactive” each time.
On to `COc1c(C)c(OC)c(OC)c2c1C[C@H]1CN(C(=O)OC(C)C)C[C@H]3OC[C@@H]2N13` (relative stereo), for which the inhibition entry in [1], in [2] and in [3] was “inactive” throughout.
For the compound `COc1c(C)c(OC)c(OC)c2c1C[C@H]1CN(C(=O)OC(C)C)CC(=O)N1[C@H]2CO`, the inhibition result in experiment [1], in [2] and in experiment [3] was “inactive” in each case.
`COc1c(C)c(OC)c(OC)c2c1C[C@H]1CN(C)CC(=O)N1[C@H]2CO` (relative stereo): the inhibition result in experiment [1], in experiment [2] and in experiment [3] was “inactive” throughout.

Source of the values: ChEMBL document CHEMBL1153080, “Cytotoxicity mechanisms of pyrazino[1,2-b]isoquinoline-4-ones and SAR studies” (2009).
